pIC50: −log10 of the molar value.
molecular target: human PAD4 (hPAD4) (Homo sapiens, UniProt Q9UM07); assay: RFMS Human PAD4 Functional Assay; type: biochemical; settings: hPAD4 RFMS IC50, human PAD4, rapid-fire mass spectrum (RFMS) assay; 5 nM hPAD4, 250 μM BAEE
Outline: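 RapidFire ESI-MS quantification, normalised to a modified-citrulline internal standard, after phenyl glyoxal (final 4 mM) derivatisation of the TCA-quenched reaction. The enzyme (10 nM) sat 30 min with compound (up to 50 μM final) before 500 μM BAEE (as added) started a 90 min, 37 °C reaction. Buffer: HEPES pH 7.5, 50 μM calcium, 5 μM TPEN.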

Sequence of human PAD4 (hPAD4) (Q9UM07 whole entry): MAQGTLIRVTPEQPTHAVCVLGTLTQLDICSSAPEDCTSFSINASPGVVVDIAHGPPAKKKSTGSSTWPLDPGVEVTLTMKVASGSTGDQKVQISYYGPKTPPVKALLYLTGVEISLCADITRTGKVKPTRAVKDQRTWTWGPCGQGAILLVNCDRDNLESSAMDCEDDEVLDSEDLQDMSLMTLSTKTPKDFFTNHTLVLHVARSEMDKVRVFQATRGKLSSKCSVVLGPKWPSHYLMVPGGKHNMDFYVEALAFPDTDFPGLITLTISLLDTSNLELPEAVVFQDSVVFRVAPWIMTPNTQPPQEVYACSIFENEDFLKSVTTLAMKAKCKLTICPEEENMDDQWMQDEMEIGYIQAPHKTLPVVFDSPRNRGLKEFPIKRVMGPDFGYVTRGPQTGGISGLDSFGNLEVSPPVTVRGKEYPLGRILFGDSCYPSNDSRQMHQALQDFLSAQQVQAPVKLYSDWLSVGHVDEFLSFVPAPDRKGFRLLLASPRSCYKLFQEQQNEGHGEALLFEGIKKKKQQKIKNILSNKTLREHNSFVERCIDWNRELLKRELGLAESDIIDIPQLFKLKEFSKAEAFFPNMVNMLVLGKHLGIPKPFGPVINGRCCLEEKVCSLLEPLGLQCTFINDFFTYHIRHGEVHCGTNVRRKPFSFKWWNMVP

| Structure (SMILES) | pIC50 |
| --- | --- |
| COc1cc(C(=O)N2C[C@H]3CC[C@@H]2[C@@H]3N)cc2nc(-c3cc4cccc(NCCC(C)(C)O)c4n3CC3CC3)n(C)c12 [Example 169, ((1R,4R,7R)-7-amino-2-azabicyclo[2.2.1]heptan-2-yl)(2-(1-(cyclopropylmethyl)-7-((3-hydroxy-3-methylbutyl)amino)-1H-indol-2-yl)-7-methoxy-1-methyl-1H-benzo[d]imidazol-5-yl)methanone] | 6.70 |
| COc1cc(C(=O)N2C[C@H]3CC[C@@H]2[C@@H]3N)cc2nc(-c3cc4cccc(Nc5cn(C)nc5C)c4n3CC3CC3(Cl)Cl)n(C)c12 (stereo partly drawn) [Example 179, ((1R,4R,7R)-7-amino-2-azabicyclo[2.2.1]heptan-2-yl)(2-(1-((2,2-dichlorocyclopropyl)meth-yl)-7-((1,3-dimethyl-1H-pyrazol-4-yl)amino)-1H-indol-2-yl)-7-methoxy-1-methyl-1H-benzo[d]imidazol-5-yl)methanone] | 7.62 |
| CCNC(=O)N1CCC(c2cccc3cc(-c4nc5cc(C(=O)N6C[C@H]7CC[C@@H]6[C@@H]7N)cc(OC)c5n4C)n(CC4CC4)c23)CC1 [Example 250, 4-(2-(5-((1R,4R,7R)-7-amino-2-azabicyclo[2.2.1]heptane-2-carbonyl)-7-methoxy-1-methyl-1H-benzo[d]imidazol-2-yl)-1-(cyclopropylmethyl)-1H-indol-7-yl)-N-ethylpiperidine-1-carboxamide] | 8.10 |
| COc1cc(C(=O)N2C[C@H]3CC[C@@H]2[C@@H]3N)cc2nc(-c3cc4cccc(CCC(C)(C)O)c4n3CC3CC3)n(C)c12 [Example 21, 4-(2-{5-[(1R,4R,7R)-7-amino-2-azabicyclo[2.2.1]heptane-2-carbonyl]-7-methoxy-1-methyl-1H-1,3-benzodiazol-2-yl}-1-(cyclopropylmethyl)-1H-indol-7-yl)-2-methylbutan-2-ol] | 7.07 |
| COc1cc(C(=O)N2C[C@H]3CC[C@@H]2[C@@H]3N)cc2nc(-c3cc4cccc(C5CCN(C(=O)CC#N)CC5)c4n3CC3CC3)n(C)c12 [Example 231, 3-(4-(2-(5-((1R,4R,7R)-7-amino-2-azabicyclo[2.2.1]heptane-2-carbonyl)-7-methoxy-1-methyl-1H-benzo[d]imidazol-2-yl)-1-(cyclopropylmethyl)-1H-indol-7-yl)piperidin-1-yl)-3-oxopropanenitrile] | 7.18 |
| COC(=O)N1CC(c2cccc3cc(-c4nc5cc(C(=O)N6C[C@H]7CC[C@@H]6[C@@H]7N)cc(OC)c5n4Cc4cnn(C)c4)n(C)c23)C1 [Example 216, methyl 3-(2-(5-((1R,4R,7R)-7-amino-2-azabicyclo[2.2.1]heptane-2-carbonyl)-7-methoxy-1-((1-methyl-1H-pyrazol-4-yl)methyl)-1H-benzo[d]imidazol-2-yl)-1-methyl-1H-indol-7-yl)azetidine-1-carboxylate] | 7.00 |
| COc1cc(C(=O)N2C[C@H](N)C[C@@H](F)C2)cc2nc(-c3cc4cccc(C5CN(C(C)=O)C5)c4n3C)n(Cc3cnn(C)c3)c12 [Example 215, 1-(3-(2-(5-((3R,5R)-3-amino-5-fluoropiperidine-1-carbonyl)-7-methoxy-1-((1-methyl-1H-pyrazol-4-yl)methyl)-1H-benzo[d]imidazol-2-yl)-1-methyl-1H-indol-7-yl)azetidin-1-yl)ethane-1-one] | 6.74 |
| COc1cc(C(=O)N2C[C@H]3CC[C@@H]2[C@@H]3N)cc2nc(-c3cc4cccc(CC5CNC5)c4n3CC3CC3)n(C)c12 [Example 26, (1R,4R,7R)-2-(2-{7-[(azetidin-3-yl)methyl]-1-(cyclopropylmethyl)-1H-indol-2-yl}-7-methoxy-1-methyl-1H-1,3-benzodiazole-5-carbonyl)-2-azabicyclo[2.2.1]heptan-7-amine] | 7.39 |

The next lines start with the values.

| pIC50 | Structure (SMILES) |
| --- | --- |
| 7.28 | COc1cc(C(=O)N2C[C@H]3CC[C@@H]2[C@@H]3N)cc2nc(-c3cc4cccc(Br)c4n3CC3CC3(F)F)n(C)c12 (stereo partly drawn) [Example 146, ((1R,4R,7R)-7-amino-2-azabicyclo[2.2.1]heptan-2-yl)(2-(7-bromo-1-((2,2-difluorocyclopropyl)meth-yl)-1H-indol-2-yl)-7-methoxy-1-methyl-1H-benzo[d]imidazol-5-yl)methanone] |
| 7.20 | COc1cc(C(=O)N2C[C@H]3CC[C@@H]2[C@@H]3N)cc2nc(-c3cc4cccc(C5COC5)c4n3CC3CC3)n(C)c12 [Example 25, (1R,4R,7R)-2-{2-[1-(cyclopropylmethyl)-7-(oxetan-3-yl)-1H-indol-2-yl]-7-methoxy-1-methyl-1H-1,3-benzodiazole-5-carbonyl}-2-azabicyclo[2.2.1]heptan-7-amine] |
| 6.97 | COc1cc(C(=O)N2C[C@H]3CC[C@@H]2[C@@H]3N)cc2nc(-c3cc4cccc(-c5cnn(CC(C)(C)O)c5)c4n3CC3CC3)n(C)c12 [Example 140, ((1R,4R,7R)-7-amino-2-azabicyclo[2.2.1]heptan-2-yl)(2-(1-(cyclopropylmethyl)-7-(1-(2-hydroxy-2-methylpropyl)-1H-pyrazol-4-yl)-1H-indol-2-yl)-7-methoxy-1-methyl-1H-benzo[d]imidazol-5-yl)methanone] |
| 7.01 | COc1cc(C(=O)N2C[C@H]3CC[C@@H]2[C@@H]3N)cc2nc(-c3cc4cccc(C5CC(C(=O)N6CC[C@@H](O)C6)C5)c4n3CC3CC3)n(C)c12 (single isomer, unassigned) [Example 52] |
| 6.99 | COc1cc(C(=O)N2C[C@H]3CC[C@@H]2[C@@H]3N)cc2nc(-c3cc4cccc(CCO)c4n3CC3CC3)n(C)c12 [Example 35, 2-(2-{5-[(1R,4R,7R)-7-amino-2-azabicyclo[2.2.1]heptane-2-carbonyl]-7-methoxy-1-methyl-1H-1,3-benzodiazol-2-yl}-1-(cyclopropylmethyl)-1H-indol-7-yl)ethan-1-ol] |
| 8.00 | COc1cc(C(=O)N2C[C@H]3CC[C@@H]2[C@@H]3N)cc2nc(-c3cc4cccc(C5CN(C(=O)Cc6ccccc6)C5)c4n3CC3CC3)n(C)c12 [Example 72, 1-[3-(2-{5-[(1R,4R,7R)-7-amino-2-azabicyclo[2.2.1]heptane-2-carbonyl]-7-methoxy-1-methyl-1H-1,3-benzodiazol-2-yl}-1-(cyclopropylmethyl)-1H-indol-7-yl)azetidin-1-yl]-2-phenylethan-1-one] |
| 7.35 | COc1cc(C(=O)N2C[C@H]3CC[C@@H]2[C@@H]3N)cc2nc(-c3cc4cccc(-c5cc(F)c(O)cc5F)c4n3CC3CC3)n(C)c12 [Example 94, 4-(2-{5-[(1R,4R,7R)-7-amino-2-azabicyclo[2.2.1]heptane-2-carbonyl]-7-methoxy-1-methyl-1H-1,3-benzodiazol-2-yl}-1-(cyclopropylmethyl)-1H-indol-7-yl)-2,5-difluorophenol] |
| 7.40 | COc1cc(C(=O)N2C[C@H]3CC[C@@H]2[C@@H]3N)cc2nc(-c3cc4cccc(Nc5cn(C)nc5C)c4n3CC3CC3C)n(C)c12 (stereo partly drawn) [Example 177, ((1R,4R,7R)-7-amino-2-azabicyclo[2.2.1]heptan-2-yl)(2-(7-((1,3-dimethyl-1H-pyrazol-4-yl)amino)-1-((2-methylcyclopropyl)meth-yl)-1H-indol-2-yl)-7-methoxy-1-methyl-1H-benzo[d]imidazol-5-yl)methanone] |
| 7.68 | COc1cc(C(=O)N2C[C@H]3CC[C@@H]2[C@@H]3N)cc2nc(-c3cc4cccc(C5CC(C(=O)N6CC(F)C6)C5)c4n3CC3CC3)n(C)c12 (single isomer, unassigned; isomer 1) [Example 200] |
| 7.89 | COc1cc(C(=O)N2C[C@H]3CC[C@@H]2[C@@H]3N)cc2nc(-c3cc4cccc(C5CN(C(=O)Nc6ccc(F)cc6)C5)c4n3CC3CC3)n(C)c12 [Example 229, 3-(2-(5-((1R,4R,7R)-7-amino-2-azabicyclo[2.2.1]heptane-2-carbonyl)-7-methoxy-1-methyl-1H-benzo[d]imidazol-2-yl)-1-(cyclopropylmethyl)-1H-indol-7-yl)-N-(4-fluorophenyl)azetidine-1-carboxamide] |
| 7.48 | COc1cc(C(=O)N2C[C@H]3CC[C@@H]2[C@@H]3N)cc2nc(-c3cc4cccc(-c5ccc(O)cc5C#N)c4n3CC3CC3)n(C)c12 [Example 193, 2-(2-(5-((1R,4R,7R)-7-amino-2-azabicyclo[2.2.1]heptane-2-carbonyl)-7-methoxy-1-methyl-1H-benzo[d]imidazol-2-yl)-1-(cyclopropylmethyl)-1H-indol-7-yl)-5-hydroxybenzonitrile] |
| 7.24 | COc1cc(C(=O)N2C[C@H]3CC[C@@H]2[C@@H]3N)cc2nc(-c3cc4cccc(-c5ccc(O)c(Cl)c5)c4n3CC3CC3)n(C)c12 [Example 92, 4-(2-{5-[(1R,4R,7R)-7-amino-2-azabicyclo[2.2.1]heptane-2-carbonyl]-7-methoxy-1-methyl-1H-1,3-benzodiazol-2-yl}-1-(cyclopropylmethyl)-1H-indol-7-yl)-2-chlorophenol] |

same assay, conditions: human PAD4, rapid-fire mass spectrum (RFMS) assay; 5 nM hPAD4, 250 μM BAEE; read-out: hPAD4 RFMS IC50

| pIC50 | Structure (SMILES) |
| --- | --- |
| 7.49 | COc1cc(C(=O)N2C[C@H]3CC[C@@H]2[C@@H]3N)cc2nc(-c3cc4cccc(CCCO)c4n3CC3CC3)n(C)c12 [Example 2, ((1R,4R,7R)-7-amino-2-azabicyclo[2.2.1]heptan-2-yl)(2-(1-(cyclopropylmethyl)-7-(3-hydroxypropyl)-1H-indol-2-yl)-7-methoxy-1-methyl-1H-benzo[d]imidazol-5-yl)methanone] |
| 7.12 | COc1cc(C(=O)N2C[C@H]3CC[C@@H]2[C@@H]3N)cc2nc(-c3cc4cccc(C5CC(NC(C)=O)C5)c4n3CC3CC3)n(C)c12 (single isomer, unassigned) [Example 58] |
| 6.85 | COc1cc(C(=O)N2C[C@H](N)CC[C@@H]2C)cc2nc(-c3cc4cccc(C5CN(C(C)=O)C5)c4n3CC3CC3)n(C)c12 [Example 42, 1-(3-(2-(5-((2S,5R)-5-amino-2-methylpiperidine-1-carbonyl)-7-methoxy-1-methyl-1H-benzo[d]imidazol-2-yl)-1-(cyclopropylmethyl)-1H-indol-7-yl)azetidin-1-yl)ethan-1-one] |
